US20220132849A1, “USE OF SPIROPIDION” (SYNGENTA CROP PROTECTION AG, priority 2019, published 2022)

What was measured:
Bemisia tabaci = experiment: Soil drench on naturally infested vegetable plants, mortality; assay type: in vivo; details: soil drench 10 mg ai/plant, 5 to 40 days after application
Method: (§1) To the soil at the base of vegetable plants naturally infested with a population of a selected pest (refer Table 2) was applied by drench 30 to 100 mL per plant of an active ingredient (ai) solution at a dose rate of 10 mg ai/plant, wherein the solutions consisted of spiropidion or spirotetramat as active ingredient. Soil application was made 3 to 7 days after transplant in a nursery tray. Spiropidion was applied as a dilution of an SC300 formulation in water. Spirotetramat was applied as a dilution of an SC240 formulation in water. Mortality rates were recorded as a percentage against an untreated check plant and were evaluated at between 5 and 40 days after soil application.

Tetranychus urticae = experiment: as above; assay type: in vivo; details: soil drench 10 mg ai/plant, 5 to 40 days after application
Method: as §1

Thrips sp. = experiment: as above; assay type: in vivo; details: soil drench 10 mg ai/plant, 5 to 40 days after application
Method: as §1

Aphis gossypii = experiment: as above; assay type: in vivo; details: soil drench 10 mg ai/plant, 5 to 40 days after application
Method: as §1

[1] = system: coffee leaf miner (Perileucoptera coffeella); experiment: Soil drench on naturally infested coffee plants, mortality; assay type: in vivo; details: 30 to 95 days after application, against untreated check plant
Method: To the soil surface at the base of separate coffee plants naturally infested with a population of coffee leaf miner (Perileucoptera coffeella) was applied as a drench 50 to 100 mL of an active ingredient (ai) solution at a dose rate of 390 mg ai/plant, wherein the active ingredient was spiropidion, or thiamethoxam as a commercial standard. Spiropidion was applied as a dilution of an SC300 formulation in water. Thiamethoxam was applied as a dilution of a WG25 formulation in water. Mortality rates were recorded as a pest control percentage against an untreated check plant and were evaluated at between 30 and 95 days after soil application of the respective active ingredients.

[2] = Uptake from soil into tomato plants after drench, LC/MS of roots, stem and leaves; parameters: species or system Solanum lycopersicum Ailsa Craig; details: in vivo
Method: In a greenhouse at 20° C., tomato plants (Solanum lycopersicum Ailsa Craig at BBCH 12 growth stage) grown in 50% Jip 3 and 50% peat in 5″ pots were drenched (in five replicates) with 50 mL of a 100 ppm aqueous active ingredient solution (5 mg of active ingredient per plant) prepared from dilution of (i) a spiropidion SC300 formulation (SC=suspension concentrate), and (ii) commercially-available spirotetramat as a SC240 formulation. At four intervals post-treatment (1, 7, 14 and 21 days), tomato plants subjected to treatments (i) and (ii) were sectioned into roots, stem and separate leaf segments, washed and extracted with the quantification by liquid chromatography/mass spectrometry (LC/MS) of amounts (μg) of spiropidion and its dione (cide), and spirotetramat and its dione (cide).

selected pests = experiment: Soil drench on vegetable plants, overall comparison over crops and pests; assay type: in vivo; details: soil treatment at the same dose rate (10 mg ai/plant); range of vegetable crops and pests
Method: as §1

CCOC(=O)OC1=C(c2cc(C)ccc2C)C(=O)N[C@]12CC[C@@H](OC)CC2 [spirotetramat]
% Mortality rate against untreated plant (Bemisia tabaci; Test no. 3, Eggplant): 68%
% Mortality rate against untreated plant (Bemisia tabaci; Test no. 4, Eggplant): 93%
% Mortality rate against untreated plant (Bemisia tabaci; Test no. 5, Eggplant): 76%
% Mortality rate against untreated plant (Bemisia tabaci; Test no. 6, Eggplant): 91%
% Mortality rate against untreated plant (Bemisia tabaci; Test no. 7, Eggplant): 96%
% Mortality rate against untreated plant (Bemisia tabaci; Test no. 14, Melon): 64%
% Mortality rate against untreated plant (Bemisia tabaci; Test no. 16, Squash): 83%
% Mortality rate against untreated plant (Bemisia tabaci; Test no. 17, Squash): 42%
% Mortality rate against untreated plant (Bemisia tabaci; Test no. 20, Tomato): 84%
% Mortality rate against untreated plant (Tetranychus urticae; Test no. 1, Eggplant): 62%
% Mortality rate against untreated plant (Tetranychus urticae; Test no. 2, Eggplant): 85%
% Mortality rate against untreated plant (Tetranychus urticae; Test no. 21, Hot pepper): 45%
% Mortality rate against untreated plant (Thrips sp.; Test no. 9, Cucumber): 90%
% Mortality rate against untreated plant (Thrips sp.; Test no. 11, Melon): 70%
% Mortality rate against untreated plant (Thrips sp.; Test no. 12, Melon): 90%
% Mortality rate against untreated plant (Thrips sp.; Test no. 13, Melon): 64%
% Mortality rate against untreated plant (Thrips sp.; Test no. 22, Hot pepper): 46%
% Mortality rate against untreated plant (Thrips sp.; Test no. 23, Sweet pepper): 53%
% Mortality rate against untreated plant (Aphis gossypii; Test no. 8, Eggplant): 71%
% Mortality rate against untreated plant (Aphis gossypii; Test no. 10, Cucumber): 87%
% Mortality rate against untreated plant (Aphis gossypii; Test no. 15, Melon): 63%
% Mortality rate against untreated plant (Aphis gossypii; Test no. 18, Squash): 93%
% Mortality rate against untreated plant (Aphis gossypii; Test no. 19, Squash): 84%

CN1COCN(Cc2cnc(Cl)s2)/C1=N\[N+](=O)[O-] [thiamethoxam]
% Mortality rate ([1]; Test no. 1, soil drench 390 mg ai/plant): 39%
% Mortality rate ([1]; Test no. 2, soil drench 390 mg ai/plant): 68%
% Mortality rate ([1]; Test no. 3, soil drench 390 mg ai/plant): 81%
% Mortality rate ([1]; Test no. 4, soil drench 390 mg ai/plant): 73%
% Mortality rate ([1]; Test no. 5, soil drench 390 mg ai/plant): 38%

CCOC(=O)OC1=C(c2c(C)cc(Cl)cc2C)C(=O)N(C)C12CCN(OC)CC2 [spiropidion]
rate of uptake from the soil compared to spirotetramat [2]: much greater rate of uptake from the soil
mortality rates compared to spirotetramat (selected pests): consistently higher
